A short description of this assay: HBV Replication Inhibition Assay: HBV replication inhibition by the compounds of this invention could be determined in cells infected or transfected with HBV, or cells with stably integrated HBV, such as HepG2.2.15 cells (Sells et al. 1987). In this example, HepG2.2.15 cells were maintained in cell culture medium containing 10% fetal bovine serum (FBS), Geneticin, L-glutamine, penicillin and streptomycin. HepG2.2.15 cells could be seeded in 96-well plates at a density of 40,000 cells/well and be treated with serially diluted compounds at a final DMSO concentration of 0.5% either alone or in combination by adding drugs in a checker box format. Cells were incubated with compounds for three days, after which medium was removed and fresh medium containing compounds was added to cells and incubated for another three days. At day 6, supernatant was removed and treated with DNase at 37° C. for 60 minutes, followed by enzyme inactivation at 75° C. for 15 minutes. Encapsidated HBV DNA was released from the virions and covalently linked HBV polymerase by incubating in lysis buffer (Affymetrix QS0010) containing 2.5 μg proteinase K at 50° C. for 40 minutes. HBV DNA was denatured by addition of 0.2 M NaOH and detected using a branched DNA (BDNA) QuantiGene assay kit according to manufacturer recommendation (Affymetrix). HBV DNA levels could also be quantified using qPCR, based on amplification of encapsidated HBV DNA extraction with QuickExtraction Solution (Epicentre Biotechnologies) and amplification of HBV DNA using HBV specific PCR probes that can hybridize to HBV DNA and a fluorescently labeled probe for quantitation. In addition, cell viability of HepG2.2.15 cells incubated with test compounds alone or in combination was determined by using CellTitre-Glo reagent according to the manufacturer protocol (Promega). The mean background signal from wells containing only culture medium was subtracted from all other samples, and percent inhibition at each compound concentration was calculated by normalizing to signals from HepG2.2.15 cells treated with 0.5% DMSO using equation E1.% inhibition=(DMSOave−Xi)/DMSOave×100% E1:where DMSOave is the mean signal calculated from the wells that were treated with DMSO control (0% inhibition control) and Xi is the signal measured from the individual wells. EC50 values, effective concentrations that achieved 50% inhibitory effect, were determined by non-linear fitting using Graphpad Prism software (San Diego, Calif.) and equation E2Y=Y min+(Y max−Y min)/(1+10(Log EC50−X)×HillSlope) E2:where Y represents percent inhibition values and X represents the logarithm of compound concentrations.

For `CC(CO)c1n[nH]c2c1CN(C(=O)Nc1cccc(Cl)c1)CC2` (stereo unspecified), the concentration for a half-maximal effect (EC50) (HepG2.2.15) was > 10000 nM.
On to `CC1Cc2[nH]nc(C3CCCC3)c2CN1C(=O)Nc1cccc(Br)c1` (stereo unspecified), for which the concentration giving a half-maximal response (EC50) result is “in the range around 55 nM”. Also, where the note is “HepG2.2.15”, the concentration giving a half-maximal response (EC50) entry was “in the range around 55 nM”.
In the case of `O=C(Nc1cccc(Cl)c1)N1CCc2[nH]nc(C3CCOCC3)c2C1`, the EC50 result (HepG2.2.15) was “in the range around 300 nM”.
Take `O=C(Nc1cccc(Cl)c1)N1CCc2[nH]nc(C3CCCC3)c2C1`: the half-maximal effective concentration (EC50) result (HepG2.2.15) is “in the range around 55 nM”.
For the compound `O=C(Nc1cccc(Br)c1)N1CCc2[nH]nc(C34CCCC3C4)c2C1` (stereo unspecified), the EC50 result (HepG2.2.15) is “in the range around 55 nM”.
On to `CC1Cc2[nH]nc(C3CCCC3)c2CN1C(=O)Nc1cccc(Cl)c1` (stereo unspecified), for which the EC50 result is “in the range around 55 nM”. Also, the half-maximal effective concentration (EC50) result (HepG2.2.15) is “in the range around 55 nM”.
On to `O=C(Nc1cccc(Cl)c1)N1CCc2[nH]nc(N3CCCC3)c2C1`, for which the EC50 result (HepG2.2.15) was “in the range around 300 nM”.
For `O=C(Nc1cccc(Cl)c1)N1CCc2[nH]nc(C3CC=CC3)c2C1`, the EC50 entry (HepG2.2.15) is “in the range around 55 nM”.
Still for that read-out and setting: under `C=C(C)c1n[nH]c2c1CN(C(=O)Nc1cccc(Br)c1F)CC2` stands “in the range around 55 nM”.
On the same count and under the same terms, under `N#Cc1cc(NC(=O)N2CCc3[nH]nc(C45CCCC4C5)c3C2)ccc1F` (stereo unspecified) stands “in the range around 55 nM”.
As to `CC1Cc2[nH]nc(C3CCCO3)c2CN1C(=O)Nc1ccc(F)c(Cl)c1` (stereo unspecified), the EC50 result was “in the range around 55 nM”. Besides, the half-maximal effective concentration (EC50) entry (HepG2.2.15) is “in the range around 55 nM”.
In the case of `Cc1cccc(NC(=O)N2Cc3c(C4CCC4)n[nH]c3CC2C)c1` (stereo unspecified), the 50% effective concentration (EC50) entry (HepG2.2.15) was “in the range around 55 nM”.
As to `O=C(Nc1cccc(Cl)c1)N1CCc2[nH]nc(C34CCCC3C4)c2C1` (stereo unspecified), under “HepG2.2.15”, the EC50 entry is “in the range around 55 nM”.
For `CC1Cc2[nH]nc(C3CCC3)c2CN1C(=O)Nc1ccnc(Br)c1F` (stereo unspecified), the EC50 entry is “in the range around 300 nM”. The EC50 entry (HepG2.2.15) was “in the range around 300 nM”.
With `O=C(Nc1cccc(Cl)c1)N1CCc2[nH]nc(C3CCC3)c2C1`, the 50% effective concentration (EC50) result (HepG2.2.15) is “in the range around 55 nM”.
Still for that read-out and setting: under `O=C(Nc1cccc(Cl)c1)N1CCc2[nH]nc(C3=CCOCC3)c2C1` stands “in the range around 300 nM”.
Still for that read-out and setting: under `CC1Cc2[nH]nc(C3CCCO3)c2CN1C(=O)Nc1ccnc(Br)c1F` (stereo unspecified) stands 750 nM; under `Cc1cccc(NC(=O)N2CCc3[nH]nc(C4CCC4)c3C2)c1`, “in the range around 300 nM”.
With `CC1Cc2[nH]nc(C3CCCC3)c2CN1C(=O)Nc1ccc(F)c(Cl)c1` (stereo unspecified), the EC50 entry was “in the range around 55 nM”. For the same compound, where the note is “HepG2.2.15”, the EC50 entry is “in the range around 55 nM”.
On to `CC1Cc2[nH]nc(C3CCCO3)c2CN1C(=O)Nc1cccc(Br)c1` (stereo unspecified), for which the concentration giving a half-maximal response (EC50) entry (HepG2.2.15) was “in the range around 55 nM”.
On the same count and under the same terms, under `O=C(Nc1cccc(Cl)c1)N1CCc2[nH]nc(C3=CCCC3)c2C1` stands “in the range around 55 nM”.

(Values after ChEMBL document CHEMBL5727499, “Derivatives and methods of treating hepatitis B infections” (2020).)
